The values that follow come from US10794932B2, “Biosensor for the detection of a biological target, and method for manufacturing the same” (The Governing Council of The University of Toronto, priority 2016, dated 2020).

Values joined by “and” are separate entries in the source; they are usually repeats but may differ in a detail not shown here. Identical values can stand only once.

The test system of one experiment is TLR4. As to the kind of experiment: TLR multiplex sensor, EIS film resistance before/after exposure (Example 5), TLR4 sensor. The class given is binding. To be noted: exposure 20 minutes. As to the method: For each multiplex TLR sensor, 5 separate gold electrodes were used for binding TLR 1 to 5. The 5 modified electrodes/sensors were exposed to the analyte solution and evaluated one by one using potentiostats and electrochemical cells.
The preparation of each TLR biosensor was evaluated using EIS. It is understood that cyclic voltammetry as well as electrochemical impedance microscopy can also be used for monitoring the modification. […] Ethanolamine was then applied to deactivate unreacted LPA. Due to dissociation of unspecific absorbed TLR, the Rct dropped slightly. Experimental curves were evaluated using a model to obtain the Rct values, which can be seen at FIG. 9. Measurements from at least triplicated samples prepared were used to obtain statistic information.
The TLR1 sensor was exposed to an E. coli K12 whole-cell buffer solution for 20 minutes. The sensor was then removed, washed thoroughly and characterized in the electrochemical cell measuring the Rct again. The difference in Rct before and after exposure is the response triggered by the target. The same protocol was carried out for all remaining TLRs (TLRs 2-5) to obtain one set of pattern for E. coli K12 (FIGS. 10b to 10e). Multiple sets were investigated for statistical relevance. […]

The next experiment has as its target T1, rmTLR5 (Mus musculus, UniProt Q9JLF7).
T1 construct: purchased
As to the kind of experiment: Selectivity test, TLR5 sensor, EIS. The class given is binding. To be noted: 10 μM. As to the method: TLR sensors were prepared using fresh, cleaned gold electrodes. The electrodes were immersed in a 2 mM 1-lipoic acid n-hydroxysuccinimide ester (LPA) ethanol solution for 48 hours at 277 K. The electrodes were then rinsed thoroughly using absolute ethanol and blown dry under nitrogen before incubation in 200 μg/ml rmTLR1, 200 μg/ml rmTLR2 and 200 μg/ml ‘rmTLR1 and 2’ mixture for 72 hours at 277 K. The rmTLR1 and 2 mixture was prepared by mixing 200 μg/ml rmTLR1 and 200 μg/ml rmTLR2 with a volume ratio of 1:1. The final concentration of each component was 100 μg/ml and the total concentration of the combined TLR protein content was 200 μg/ml. Following the supplier's recommended conditions, all TLRs were prepared in PBS buffer (pH˜7.4). The electrodes were rinsed with an excess volume of Milli-Q water and blown dry under nitrogen. An ethanolamine-tris buffer solution was prepared by dissolving 1.2 g of ethanolamine and 0.121 g of Tris base in 20 mL of water, the pH was adjusted to 8.4 using hydrochloric acid. […]
All electrochemical measurements were carried out using a cell with a three-electrode configuration in an enclosed Faraday cage. […] The experimental EIS curves were evaluated to determine the film resistance using ZSimpWin 2.0 software. […]

The next experiment concerns rmTLR2. As to the kind of experiment: Label-free TLR2 sensor, EIS detection of Pam3CSK4 (Example 7). The class given is binding, mouse. To be noted: for delta Rct %: 20 minutes; for Rct: before immersion 7784. Here is the method:
TLR sensors were prepared using fresh, cleaned gold electrodes. The electrodes were immersed in a 2 mM 1-lipoic acid n-hydroxysuccinimide ester (LPA) ethanol solution for 48 hours at 277 K. The electrodes were then rinsed thoroughly using absolute ethanol and blown dry under nitrogen before incubation in 200 μg/ml rmTLR1, 200 μg/ml rmTLR2 and 200 μg/ml ‘rmTLR1 and 2’ mixture for 72 hours at 277 K. The rmTLR1 and 2 mixture was prepared by mixing 200 μg/ml rmTLR1 and 200 μg/ml rmTLR2 with a volume ratio of 1:1. The final concentration of each component was 100 μg/ml and the total concentration of the combined TLR protein content was 200 μg/ml. Following the supplier's recommended conditions, all TLRs were prepared in PBS buffer (pH˜7.4). The electrodes were rinsed with an excess volume of Milli-Q water and blown dry under nitrogen. An ethanolamine-tris buffer solution was prepared by dissolving 1.2 g of ethanolamine and 0.121 g of Tris base in 20 mL of water, the pH was adjusted to 8.4 using hydrochloric acid. TLR-immobilized electrodes were incubated in the ethanolamine solution for one hour at room temperature in order to block any remaining unreacted LPA amine sites. The fabricated sensors with immobilized, standalone rmTLR3, rmTLR4/MD-2 and rmTLR5, used for the selectivity test, were prepared using the same protocol described above.
Pam3CSK4 was dissolved in 10 mM HEPES aqueous buffer at pH˜7.4. The blocked rmTLR biosensors were incubated in Pam3CSK4 at various concentrations for 20 minutes. The electrodes were always washed thoroughly with same HEPES buffer (pH˜7.4) after the incubation.
All electrochemical measurements were carried out using a cell with a three-electrode configuration in an enclosed Faraday cage. CV and EIS measurements were completed using a CHI-660b potentiostat (CH Instruments, Austin, Tex.). rmTLR-modified gold electrodes and platinum (Pt) wire were used as the working electrode and the counter electrode, respectively. A reference electrode (Ag/AgCl/3.0M KCl) and a salt bridge, filled with an agar and 1M KNO3 aqueous solution, were inserted to minimize the diffusion of chloride ions into the electrolyte solution. The agar solution was prepared by dissolving 2.0 grams of agar and 10.1 g KNOB in 100 mL of water. The CV and EIS electrolyte was made in a 10 mM HEPES aqueous buffer at pH˜7.4, which consisted of a 5 mM K4Fe(CN)6/5 mM K3Fe(CN)6 as a redox couple with 1M of NaClO4 as the supporting electrolyte. For consistency, the electrochemical measurements were carried out with open-circuit potentials. EIS experiments were conducted in the frequency range of 100,000 to 0.1 Hz with an amplitude of 5 mV. The experimental EIS curves were evaluated to determine the film resistance using ZSimpWin 2.0 software.

T1 sequence (Q9JLF7 27-859): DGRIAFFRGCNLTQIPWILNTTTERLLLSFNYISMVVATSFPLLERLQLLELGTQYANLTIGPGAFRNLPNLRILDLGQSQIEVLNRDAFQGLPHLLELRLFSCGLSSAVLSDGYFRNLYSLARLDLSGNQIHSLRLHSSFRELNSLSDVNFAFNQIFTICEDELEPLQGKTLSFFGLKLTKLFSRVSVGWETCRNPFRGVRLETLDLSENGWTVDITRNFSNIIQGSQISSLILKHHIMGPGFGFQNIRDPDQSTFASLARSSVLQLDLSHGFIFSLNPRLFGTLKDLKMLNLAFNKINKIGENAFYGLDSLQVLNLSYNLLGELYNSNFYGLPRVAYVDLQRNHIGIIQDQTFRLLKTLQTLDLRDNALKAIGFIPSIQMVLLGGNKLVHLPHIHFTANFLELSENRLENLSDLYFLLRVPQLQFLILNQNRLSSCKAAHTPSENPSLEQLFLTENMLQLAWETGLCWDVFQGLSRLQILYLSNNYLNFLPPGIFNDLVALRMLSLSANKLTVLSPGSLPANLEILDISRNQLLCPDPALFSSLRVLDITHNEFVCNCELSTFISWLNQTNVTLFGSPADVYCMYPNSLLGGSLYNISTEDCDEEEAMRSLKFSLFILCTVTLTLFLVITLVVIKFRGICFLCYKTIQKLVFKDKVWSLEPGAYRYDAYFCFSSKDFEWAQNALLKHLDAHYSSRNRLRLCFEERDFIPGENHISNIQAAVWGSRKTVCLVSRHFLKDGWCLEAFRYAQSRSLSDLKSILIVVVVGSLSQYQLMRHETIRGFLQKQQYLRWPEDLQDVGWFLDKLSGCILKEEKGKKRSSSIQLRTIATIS

As for Pam3CSK4, the “delta Rct %” value is “limited responses” with TLR4; “not significant” in the experiment on rmTLR2 (5 μM); 32±6% and ~30% with rmTLR2 (10 μM); 42±18% with rmTLR2 (25 μM); 80±32% with rmTLR2 (50 μM). In addition, on rmTLR5, the “electrochemical response (selectivity test)” value is “slight signal variations”. In the experiment with rmTLR2, this substance came in with a limit of detection of 10 µM. Further, the Rct with rmTLR2 (after 5 μM) is 7355 Ω · cm^2; with rmTLR2 (after 10 μM), 9446 Ω · cm^2; in the experiment with rmTLR2 (after 25 μM) it was 12770 Ω · cm^2; in the experiment with rmTLR2 (after 50 μM) it was 17610 Ω · cm^2.
